23 compounds from patent US4064132A, “Aroyl-substituted phenylacetamide derivatives” (Janssen Pharmaceutica N.V., priority 1976, dated 1977) can be followed below.

Assay [1] concerns acetic acid induced writhing. Description: HOAc (acetic acid) induced writhing test in rats. In kind it is in vivo, female Wistar rats. As to conditions: for ED50: Rattus norvegicus, po; for Potency Ratio: writhing test, compound A vs compound B. The protocol: According to the acetic acid induced writhing test, female Wistar rats (body weight 100±5g) are fasted overnight and injected intraperitoneally with 0.5 ml of a 1% acetic acid solution. Rats with at least 10 writhes within the first 10 minutes following the acetic acid injection are selected and treated five minutes later with an oral dose of the compound under investigation or with the vehicle (control). The number of writhes, i.e. the backward extension of the hind limbs, are counted during a 15 minute experimental session 45 to 60 minutes after the oral treatment. A minimum of three rats are used for each dose level tested.

Assay [2] deals with mycobacterium butyricum induced arthritis. Kind of assay: mycobacterium butyricum induced arthritis test in rats. As to conditions: for minimal effective dose: Rattus norvegicus, po, 336 h, 14 consecutive days; for Potency Ratio: arthritis test, compound A vs compound B. Format: in vivo, male Wistar rats. The method, then: According to the mycobacterium butyricum induced arthritis test, male Wistar rats (body weight 235±15g) are injected intradermally in the tail base with 0.05 ml of an oily suspension of mycobacterium butyricum. The paws and the joint diameters of the hind limbs are measured the day of the injection and a fortnight later. Rats with established arthritis, i.e., significant increase in paw and joint diameters are used for drug testing. Groups of three individually caged animals receive the drug under investigation mixed with the powdered food at different concentrations during 14 consecutive days. After this treatment period, the diameters of the hind limbs are measured again and the effect of drug treatment is evaluated by comparing the final swelling degrees of treated animals with that occurring in untreated controls. The lowest effective dose is that dose whereby a significant decrease of the swelling is observed as compared to untreated control animals.

[3] abbreviates: table 3, read-out: Writhing test in rats, ED50.
Where [4] appears, read: drug in food, table 3, read-out: Mycobacterium butyricum test effective dose.
[5] abbreviates: mixed with the powdered food, significant decrease of swelling vs untreated controls, table 2, read-out: Lowest Effective Dose.
Where [6] appears, read: all-or-none basis of less than 15 writhes per animal per session, table 1, read-out: Oral ED50 (lowest effective oral dose expressed as ED50).

Read-outs that look alike come from different tables or passages of the source.

Take `CC(C(=O)O)c1cccc(C(=O)c2cccs2)c1` (centres unmarked) [m-(2-thenoyl) H H Me H OH, m-(2-thenoyl)hydratropic acid]: in assay [1] (setting [3]), the ED50 stood at 1.25 mg/kg.

For the compound `Cc1cc(C(C)C(=O)O)ccc1C(=O)c1cccs1` (centres unmarked) [p-(2-thenoyl) Me H Me H OH, 3-methyl-4-(2-thenoyl)hydratropic acid], the minimal effective dose in assay [2] (setting [4]) was 10 mg/kg. Further, the ED50 in assay [1] (setting [3]) came to 5 mg/kg.

As to `CCCCCCCCOC(=O)C(C)c1ccc(C(=O)c2cccs2)cc1` (centres unmarked) [p-(2-thenoyl) H H Me H OOct, octyl p-(2-thenoyl)hydratropate], in assay [1] (setting [3]), the ED50 came out at 0.63 mg/kg.

As to `CCN(CC)CCOC(=O)C(C)c1ccc(C(=O)c2cccs2)cc1.Cl` (centres unmarked) [p-(2-thenoyl) H H Me H O(CH2)2N(Et)2, 2-(diethylamino)ethyl p-(2-thenoyl)hydratropate hydrochloride], the minimal effective dose in assay [2] (setting [4]) amounted to 2.5 mg/kg. In addition, the ED50 in assay [1] (setting [3]) turned out to be 0.04 mg/kg.

Regarding `Cc1ccc(C(=O)c2ccc(C(C)C(=O)O)cc2)s1` (centres unmarked) [p-(5-Me-2-thenoyl) H H Me H OH, p-(5-methyl-2-thenoyl)hydratropic acid], the minimal effective dose in assay [2] (setting [4]) worked out at 5 mg/kg. For the same compound, the ED50 in assay [1] (setting [3]) is 1.25 mg/kg.

Consider `CC(C(=O)O)c1ccc(C(=O)c2ccc3ccccc3c2)cc1` (centres unmarked) [p-(2-naphtoyl) H H Me H OH, p-(2-naphthoyl)hydratropic acid], for which the minimal effective dose in assay [2] (setting [4]) worked out at 10 mg/kg. In addition, in assay [1] (setting [3]), the ED50 was 1.25 mg/kg.

Consider `CC(C(=O)O)c1ccc(C(=O)c2cccs2)cc1` (single isomer, unassigned; (-)) [p-(2-thenoyl) (-) H H Me H OH, (-)-p-(2-thenoyl)hydratropic acid], for which the “Writhing test in rats; ED50” value in assay [1] (oral, table 3) is 5.0 mg/kg.

In the case of `CC(C(=O)O)c1ccc(C(=O)c2cccs2)cc1` (stereo not drawn) [A, p-(2-thenoyl)-α-methyl-phenylacetic acid], the “antagonism of mycobacterium butyricum induced arthritis in rats (in words)” value in assay [2] was “powerful antagonist of mycobacterium butyricum induced arthritis in rats”. Besides, in assay [2] (setting [5]), the minimal effective dose stood at 0.63 mg/kg. Also, the “Potency Ratio” value in assay [2] (table 2) and in assay [1] (table 1) was 1 in each case. Besides, the “times more active than compound B (arthritis)” value in assay [2] (drug in food, 14 days) was “at least 16 times”. The ED50 in assay [1] (setting [6]) is 0.08 mg/kg. In assay [1] (oral), the “times more active than compound B (writhing)” value amounted to 16 times.

On to `CC(C(=O)NO)c1ccc(C(=O)c2cccs2)cc1` (centres unmarked) [p-(2-thenoyl) H H Me H NHOH, p-(2-thenoyl)hydratropohydroxamic acid], for which the ED50 in assay [1] (setting [3]) worked out at 1.25 mg/kg.

Regarding `COc1ccc(NC(=O)C(C)c2ccc(C(=O)c3cccs3)cc2)cc1` (centres unmarked) [p-(2-thenoyl) H H Me H drawing 30], the minimal effective dose in assay [2] (setting [4]) was below 10 mg/kg. Further, the ED50 in assay [1] (setting [3]) stood at 10 mg/kg.

`CCOC(=O)C(C)c1ccc(C(=O)c2cccs2)cc1` (centres unmarked) [p-(2-thenoyl) H H Me H OEt, ethyl p-(2-thenoyl)hydratropate]: in assay [1] (setting [3]), the ED50 came to 0.31 mg/kg.

For `CC(C(=O)O)c1ccc(C(=O)c2cccs2)cc1` (single isomer, unassigned; (+)) [p-(2-thenoyl) (+) H H Me H OH, (+)-p-(2-thenoyl)hydratropic acid], in assay [2] (setting [4]), the minimal effective dose is at most 2.5 mg/kg. In addition, in assay [1] (oral, table 3), the “Writhing test in rats; ED50” value is 0.31 mg/kg.

Take `CC(C(=O)O)c1ccc(C(=O)c2cccnc2)cc1.Cl` (centres unmarked) [p-(3-pyridylcarbonyl) H H Me H OH, p-(3-pyridylcarbonyl)hydratropic acid hydrochloride]: the minimal effective dose in assay [2] (setting [4]) was 2.5 mg/kg. In addition, the ED50 in assay [1] (setting [3]) came to 2.5 mg/kg.

Take `CC(C(=O)O)c1ccc(C(=O)c2ccccc2)cc1` (stereo not drawn) [B, p-benzoyl-α-methylphenylacetic acid, reference compound]: the minimal effective dose in assay [2] (setting [5]) stood at 10 mg/kg. The “Potency Ratio” value in assay [2] (table 2) and in assay [1] (table 1) was 1/16 in each case. The ED50 in assay [1] (setting [6]) stood at 1.25 mg/kg.

For `CC(C(=O)O)c1ccc(C(=O)c2cccs2)c(Cl)c1` (centres unmarked) [p-(2-thenoyl) Cl H Me H OH, 3-chloro-4-(2-thenoyl)hydratropic acid], in assay [2] (setting [4]), the minimal effective dose is 1.25 mg/kg. Also, the ED50 in assay [1] (setting [3]) is 1.25 mg/kg.

For `CC(C(=O)OCCCN(C)C)c1ccc(C(=O)c2cccs2)cc1.O=C(O)C(=O)O` (centres unmarked) [p-(2-thenoyl) H H Me H O(CH2)3N(Me)2, 3-(dimethylamino)propylp-(2-thenoyl)hydratropate oxalate], the minimal effective dose in assay [2] (setting [4]) was 2.5 mg/kg. In addition, the ED50 in assay [1] (setting [3]) came out at 0.16 mg/kg.

Turning to `C=CCC(C(=O)O)c1ccc(C(=O)c2cccs2)cc1` (centres unmarked) [p-(2-thenoyl) H H allyl H OH, 2-[p-(2-thenoyl)phenyl]-4-pentenoic acid], the minimal effective dose in assay [2] (setting [4]) came out at 10 mg/kg. Moreover, the ED50 in assay [1] (setting [3]) turned out to be 1.25 mg/kg.

For `CC(C(=O)OCCN(C)C)c1ccc(C(=O)c2cccs2)cc1.O=C(O)C(=O)O` (centres unmarked) [p-(2-thenoyl) H H Me H O(CH2)2N(Me)2, 2-(dimethylamino)ethyl p-(2-thenoyl)hydratropate oxalate], in assay [2] (setting [4]), the minimal effective dose is 2.5 mg/kg. Moreover, the ED50 in assay [1] (setting [3]) is 0.08 mg/kg.

Take `CC(C(=O)NC1=NCCS1)c1ccc(C(=O)c2cccs2)cc1` (centres unmarked) [p-(2-thenoyl) H H Me H drawing 31]: the minimal effective dose in assay [2] (setting [4]) came to 10 mg/kg. Further, the ED50 in assay [1] (setting [3]) was 2.5 mg/kg.

With `Cc1c(CC(=O)O)cccc1C(=O)c1cccs1` [m-(2-thenoyl) H Me H H OH, 2-[3-(2-thenoyl)-o-tolyl]acetic acid], the minimal effective dose in assay [2] (setting [4]) was 1.25 mg/kg. Besides, in assay [1] (setting [3]), the ED50 turned out to be 10 mg/kg.

`CC(C(=O)O)c1ccc(C(=O)c2ccc(Cl)s2)cc1` (centres unmarked) [p-(5-chloro-2-thenoyl) H H Me H OH, p-(5-chloro-2-thenoyl)hydratropic acid]: the minimal effective dose in assay [2] (setting [4]) was 5 mg/kg. Moreover, in assay [1] (setting [3]), the ED50 was 0.63 mg/kg.

Regarding `CC(C)(C(=O)O)c1ccc(C(=O)c2cccs2)cc1` [p-(2-thenoyl) H H Me Me OH, α-methyl-p-(2-thenoyl)hydratropic acid], the minimal effective dose in assay [2] (setting [4]) is below 10 mg/kg. In assay [1] (setting [3]), the ED50 amounted to 0.31 mg/kg.

Regarding `CCC(C(=O)O)c1ccc(C(=O)c2cccs2)cc1` (centres unmarked) [p-(2-thenoyl) H H Et H OH, 2-[p-(2-thenoyl)phenyl]butyric acid], the ED50 in assay [1] (setting [3]) is 0.63 mg/kg.
